Data: ChEMBL document CHEMBL1128124, “Inhibitors of acyl-CoA: Cholesterol O-acyl transferase (ACAT) as hypocholesterolemic agents. 13. Design, synthesis and biological evaluation of tetrazole anilides as potent inhibitors of ACAT in vitro and hypocholesterolemic agents in vivo” (Bioorg Med Chem Lett, 1995)
Each block holds one compound with its values, some of them ahead of it.

How the values were obtained:
[1] = tested on: Rattus norvegicus; experiment: Percent change in total cholesterol in cholic acid (0.5%)-cholesterol (1.5%)-peanut oil (5.5%)-fed rats after administration of 30 mg/kg was determined; format: functional
[2] = tested on: Rattus norvegicus; experiment: Percent change in total cholesterol in cholic acid (0.5%)-cholesterol (1.5%)-peanut oil (5.5%)-fed rats after administration of 30 mg/kg for 7 days was determined; format: functional
[3] = tested on: Rattus norvegicus; experiment: Percent change in total cholesterol in cholic acid (0.5%)-cholesterol (1.5%)-peanut oil (5.5%)-fed rats after administration of 30 mg/kg was determined.; format: functional
[4] = tested on: Rattus norvegicus; experiment: Percent change in total cholesterol in cholic acid (0.5%)-cholesterol (1.5%)-peanut oil (5.5%)-fed rats after administration of 3 mg/kg for 7 days was determined.; format: functional
[5] = tested on: Rattus norvegicus; experiment: Percent change in total cholesterol in cholic acid (0.5%)-cholesterol (1.5%)-peanut oil (5.5%)-fed rats after administration of 10 mg/kg for 7 days was determined.; format: functional
[6] = tested on: Rattus norvegicus; experiment: Percent change in total cholesterol in cholic acid (0.5%)-cholesterol (1.5%)-peanut oil (5.5%)-fed rats after administration of 3 mg/kg was determined.; format: functional
[7] = tested on: Rattus norvegicus; experiment: Percent change in total cholesterol in cholic acid (0.5%)-cholesterol (1.5%)-peanut oil (5.5%)-fed rats after administration of 3 mg/kg for 7 days was determined; format: functional
[8] = tested on: Rattus norvegicus; experiment: Percent change in total cholesterol in cholic acid (0.5%)-cholesterol (1.5%)-peanut oil (5.5%)-fed rats after administration of 10 mg/kg for 7 days was determined; format: functional
[9] = tested on: Rattus norvegicus; experiment: Percent change in total cholesterol in cholic acid (0.5%)-cholesterol (1.5%)-peanut oil (5.5%)-fed rats after administration of 3 mg/kg was determined; format: functional
[10] = biological target: T1, Sterol O-acyltransferase 1 (Rattus norvegicus, UniProt O70536); experiment: Concentration required for the in vitro inhibition of Acyl coenzyme A:cholesterol acyltransferase (ACAT) in liver microsomes isolated from cholesterol-fed rats was determined; parameters: species or system Microsome
T1 sequence (O70536 whole entry): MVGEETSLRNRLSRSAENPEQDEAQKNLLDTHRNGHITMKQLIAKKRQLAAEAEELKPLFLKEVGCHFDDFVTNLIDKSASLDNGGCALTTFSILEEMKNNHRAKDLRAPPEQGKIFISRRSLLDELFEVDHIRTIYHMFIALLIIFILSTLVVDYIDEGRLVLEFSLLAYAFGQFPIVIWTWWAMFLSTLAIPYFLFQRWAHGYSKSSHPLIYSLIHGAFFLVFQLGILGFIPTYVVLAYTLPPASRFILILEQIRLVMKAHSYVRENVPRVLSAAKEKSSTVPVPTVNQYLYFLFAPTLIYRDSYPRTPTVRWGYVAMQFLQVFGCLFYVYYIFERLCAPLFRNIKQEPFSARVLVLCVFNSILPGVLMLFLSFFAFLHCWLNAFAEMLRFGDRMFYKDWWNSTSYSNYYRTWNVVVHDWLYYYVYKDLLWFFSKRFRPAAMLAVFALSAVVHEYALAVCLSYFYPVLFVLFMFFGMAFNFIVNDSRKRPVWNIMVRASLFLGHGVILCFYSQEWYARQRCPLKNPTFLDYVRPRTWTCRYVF

SMILES: CCCCCCCCCCCCn1nnnc1C(C(=O)Nc1c(C(C)C)cccc1C(C)C)c1ccccc1 (stereo not drawn)
- Change TC [1]: -44%
- Change TC [2]: -24%

SMILES: CCCCCCCCCCCCn1nnnc1C(C(=O)Nc1c(OC)cc(OC)cc1OC)c1ccccc1 (stereo not drawn)
- Change TC [3]: -38%

SMILES: CCCCCCCCCCCCn1nnc(C(C(=O)Nc2c(OC)cc(OC)cc2OC)c2ccccc2)n1 (stereo not drawn)
- Change TC [3]: -63%
- Change TC [4]: -23%
- Change TC [5]: -59%
- Change TC [6]: -65%

SMILES: CCCCCCCCCCC(C)(C)C(=O)Nc1c(OC)cc(OC)cc1OC [CL-976]
- Change TC [7]: -12%
- Change TC [1]: -57%
- Change TC [8]: -17%
- Change TC [9]: -15%

SMILES: CCCCCCCCCCCCn1nnc(C(C(=O)Nc2c(C(C)C)cccc2C(C)C)c2ccccc2)n1 (stereo not drawn)
- Change TC [1]: -49%
- Change TC [9]: -46%
- Change TC [2]: -38%

SMILES: CCCCCCCCCCCCn1nnc(C(C(=O)Nc2c(OC)cc(OC)cc2OC)c2ccccc2)n1 (single isomer, unassigned; (+))
- Change TC ([7]; 3 mg/kg): -55%
- Change TC ([1]; 30 mg/kg): -68%
- Change TC ([8]; 10 mg/kg): -60%
- Change TC ([9]; 3 mg/kg): -66%

- IC50 [10]: 330 nM
SMILES: CCCCCCCCCCCCn1nnc(C(C(=O)Nc2c(OC)cc(OC)cc2OC)c2ccccc2)n1 (stereo in doubt; 8-(-))
- Change TC ([7]; 3 mg/kg): 7%
- Change TC ([1]; 30 mg/kg): -64%
- Change TC ([8]; 10 mg/kg): -11%
- Change TC ([9]; 3 mg/kg): -47%
